Legend:
auditory cortex = assay: Population recordings in auditory cortex (A1) before, during and after tone stimulation in urethane-anesthetised rats; type: in vivo, Long Evans rats; conditions: for brain state in auditory cortex: urethane-anesthetised rats, carbachol infused into posterior hypothalamic nucleus, amphetamine 1 mg/kg IP, MK801 0.1 mg/kg i.p.
Procedure: (§1) Rats were then placed in a stereotaxic frame, and a window in the skull was prepared over primary somatosensory cortex (S1) hindlimb area (AP −1 mm; ML 2 mm; DV 1.5 mm) For auditory experiments, 8 Long Evans rats (250-350 g) were anesthetised with urethane (1.5 g/kg IP) and placed in a nasal restraint that left the ears free. A window in the skull (2×3 mm) was prepared over the primary auditory cortex. For all recordings, Applicant used silicon probes consisting of eight shanks (200 μm shank separation); each shank had 4 recording sites in a tetrode configuration (20 μm separation between sites, 160 μm^2 site area; 1-3 MOhm impedance; NeuroNexus Technologies).
To ensure that our results are not affected by differences in firing rates among animals, Applicant down sampled the multi-unit activity of all animals to match the number of spikes in the sample with the lowest firing rate.

[1] = test system: primary somatosensory cortex (S1); assay: Population recordings in primary somatosensory cortex (S1) before, during and after tactile stimulation in urethane-anesthetised rats; type: in vivo, Long Evans rats; conditions: for firing rate reactivation (explained variance) during the stimulation period: 1 sec intervals of spontaneous activity, FIG. 4C; for Euclidian distance between firing rate correlation matrices, evoked vs following spontaneous compared with evoked vs preceding spontaneous: FIG. 4B, paired t-test; for mean corr. coef. change of latency correlation (spontaneous vs evoked) after tactile stimulation: latency from cross-correlogram with MUA, FIG. 2E; for mean corr. coef. change of latency correlation (spontaneous vs evoked) after tactile stimulation / mean corr. coef. change of latency correlation from pairwise correlograms: mean ± SEM; for mean corr. coef. change of latency correlation from pairwise correlograms: pair-wise cross-correlograms, FIG. 2E white bars; for latency correlation after vs before stimulation (averaged values): t-test
Procedure: as §1
The time course of the experimental protocol is illustrated in FIG. 1A and FIG. 1B. […] Each recording period consisted of 10 min of spontaneous activity, followed by 20 minutes of tactile stimulation, and then another 10 min of spontaneous activity. The tactile stimulation consisted of 600 repetitions of 1 second stimulation at 20 Hz followed by 1 second without stimulation. The tactile stimulator consisted of a plastic rod attached at one end to a membrane of a speaker controlled by a computer. The other end of the rod was placed in contact with left hind limb.
In order to quantify temporal relations among neurons, Applicant calculated the mean spike latency as described previously. Briefly, for each neuron, latency is defined as the center of mass of a cross-correlogram of that neuron with the summed activity of all other simultaneously recorded cells (MUA), within a time window of 100 ms (FIG. 2A). Before calculating the center of mass, cross-correlograms were smoothed with a Gaussian kernel with SD=5 ms and normalized between 0 and 1 to discard effects of baseline activity. Thus this measure estimates the time when the corresponding neuron is most likely to fire with respect to the population activity. In addition to analysis of cross-correlograms between single neurons and multiunit activity as described above, Applicant also calculated latency from pair-wise cross-correlograms to look at temporal relations between neurons in more detail (FIG. 2E white bars).
Extracellular signals were high-pass filtered (0.1 Hz) and amplified (1,000 times) using a 64-channel amplifier (Neuralynx). Signals were then digitized at 32 kHz. Units were identified and isolated by a semiautomatic cluster cutting algorithm (available at: klustakwik.sourceforge.net), followed by manual clustering (MClust).
To ensure that our results are not affected by differences in firing rates among animals, Applicant down sampled the multi-unit activity of all animals to match the number of spikes in the sample with the lowest firing rate. […]
For this analysis Applicant only included neurons with a firing rate above 0.6 Hz.

Compound | replay activity (reverberation of stimulus-evoked patterns) (auditory cortex; after NMDA receptor antagonist application) | brain state in auditory cortex (auditory cortex) | firing rate reactivation (explained variance) during the stimulation period ([1]; S1) | Euclidian distance between firing rate correlation matrices, evoked vs following spontaneous compared with evoked vs preceding spontaneous ([1]; S1) | mean corr. coef. change of latency correlation (spontaneous vs evoked) after tactile stimulation ([1]; S1) | mean corr. coef. change of latency correlation from pairwise correlograms ([1]; S1) | latency correlation after vs before stimulation (averaged values) ([1]; S1) | brain state (cortical activity, LFP and unit activity) in S1 ([1]; urethane 1.5 g/kg IP, amphetamine 1 mg/kg injected in addition) | mean slope of latency correlation after stimulation ceased ([1]; S1, after stimulation FIG. 2G, ± SD) | mean slope of latency correlation, pre-stimulus spontaneous periods ([1]; S1, first three points FIG. 2G, ± SD) | mean slope of latency correlation during stimulation ([1]; S1, three points during stimulation FIG. 2G, ± SD) | duration of desynchronized state after injection ([1]; urethane-anesthetised rats, amphetamine 1 mg/kg)
C[C@]12N[C@H](Cc3ccccc31)c1ccccc12 [MK801] | suppressed | – | – | – | – | – | – | – | – | – | – | –
C[N+](C)(C)CCOC(N)=O [carbachol] | – | desynchronization of the brain state | – | – | – | – | – | – | – | – | – | –
CCOC(N)=O [urethane] | – | synchronized brain state | significant firing rate reactivation | non-significant increase in similarity | −0.03±0.06 | 0.049±0.025 | not significantly different | synchronized state | – | – | – | –
d-Methamphetamine HCl | – | – | significant firing rate reactivation | smaller | 0.31±0.062 | 0.098±0.023 | significantly higher after stimulation | – | −0.07±0.08 | −0.01±0.1 | 0.11±0.12 | at least 30 minutes
